# Experimental data published in PubChem BioAssay AID1077 (Sanford-Burnham Center for Chemical Genomics, 2009).
# Target: Tyrosine-protein phosphatase non-receptor type 7 (Homo sapiens) (UniProt P35236)
# Experiment: HePTP phosphatase inhibitor potency, dose response, biochemical, fluorescence, secondary assay (AID 1077)
# Details: recombinant HePTP phosphatase, fluorogenic substrate
# Chain of Tyrosine-protein phosphatase non-receptor type 7 (Homo sapiens) (P35236 whole entry, looked up): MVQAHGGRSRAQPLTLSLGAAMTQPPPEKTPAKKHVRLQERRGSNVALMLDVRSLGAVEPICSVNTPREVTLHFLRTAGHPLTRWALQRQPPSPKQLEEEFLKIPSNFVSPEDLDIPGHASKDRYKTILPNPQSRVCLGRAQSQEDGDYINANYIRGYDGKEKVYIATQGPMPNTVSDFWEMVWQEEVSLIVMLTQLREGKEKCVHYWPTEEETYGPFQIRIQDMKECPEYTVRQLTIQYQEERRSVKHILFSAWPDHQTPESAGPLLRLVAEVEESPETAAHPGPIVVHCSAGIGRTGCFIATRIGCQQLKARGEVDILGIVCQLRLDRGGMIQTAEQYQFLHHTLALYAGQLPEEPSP
structure (smiles),measurement,value
CCOc1ccc2nc(NC(=O)CSC3=Nc4sc(C)c(C)c4C(=O)C3)sc2c1,IC50,15 µM
